Reference: US20100286092A1, “BETA-LACTAMASE INHIBITORS” (priority 2007, published 2010)

What was measured:
Details in all cases: in the presence of a fixed amount (8 μg/mL) of Ceftazidime; CAMHB, 16-20 hours at 37° C.
[1] = test system: K. pneumoniae expressing the Class A carbapenemase KPC-2
Source text: (§1) To determine the ability of test compounds to potentiate the inhibition of the growth of bacterial strains producing beta-lactamase enzymes, classic cell based screening assays were employed. Four bacteria strains producing beta-lactamase enzymes were used: K. pneumoniae expressing the Class A Extended Spectrum Beta-Lactamase (ESBL) CTX-M-15, E. coli expressing the Class A ESBL SHV-5, E. cloacae expressing the Class C P99+, and K. pneumoniae expressing the Class A carbapenemase KPC-2. In order to evaluate the ability of test compounds to inhibit beta-lactamase activity, Applicants used a modification of the broth microdilution assay. The assay was conducted in Cation Adjusted Mueller Hinton Broth (CAMHB, BD #212322, BD Diagnostic Systems, Sparks, Md.). Bacteria strains were grown for 3-5 hours in CAMBH broth. All four strains were grown in presence of 50 μg/mL ampicillin to ensure resistance is maintained. In the meantime, test compounds were diluted in DMSO to a 0.1 mg/mL stock. The compounds were added to a microtiter plate and were diluted in 2-fold serial dilutions in CAMHB in a final concentration range of 8 μg/mL to 0.015 μg/ml. An overlay of CAMHB containing a cephalosporin was added to the compounds at a final static concentration of 8 μg/ml. […] Each of these compound plates are made in quadruplicate, one for each bacteria strain. In addition to the titration of test compounds the MICs of a panel of cephalosporins is also tested to ensure the strains are behaving consistently from test to test. Once the test compound and cephalosporin are added the plates can be inoculated. Inocula are conducted according to CLSI broth microdilution method. After inoculation the plates are incubated for 16-20 hours at 37° C. then the Minimal Inhibitory Concentration (MIC) of the test compound is determined visually.
(§2) Using the methodology described above, examples of the current invention were evaluated for their ability to inhibit the growth of β-lactamase producing bacteria in the presence of a β-lactam antibiotic. […] NT=Not Tested.

[2] = test system: E. coli expressing the Class A ESBL SHV-5; assay type: cell-based
Source text: as §1, §2

[3] = test system: K. pneumoniae expressing the Class A Extended Spectrum Beta-Lactamase (ESBL) CTX-M-15; assay type: cell-based
Source text: as §1, §2

[4] = test system: E. cloacae expressing the Class C P99+; assay type: cell-based
Source text: as §1, §2

Structure (SMILES)	MIC of example compound, K. pneumoniae KPC-2 + 8 μg/mL CAZ [1]	MIC of example compound, E. coli SHV-5 + 8 μg/mL CAZ [2]	MIC of example compound, K. pneumoniae CTX-M-15 + 8 μg/mL CAZ [3]	MIC of example compound, E. cloacae P99 AmpC + 8 μg/mL CAZ [4]
Cl.NCCOc1cccc(CC(=O)N[C@@H](Cc2cccc(C(=O)O)c2O)B(O)O)c1 [Example 4, (1R)-1-[3-(2-amino)-ethoxy-phenyl]acetylamino-1-(3-carboxy-2-hydroxy)benzyl-methylboronic acid hydrochloride]	C (C represents an MIC of <1 μg/mL)	C (C represents an MIC of <1 μg/mL)	C (C represents an MIC of <1 μg/mL)	C (C represents an MIC of <1 μg/mL)
O=C(Cc1ccccc1)N[C@@H](Cc1cccc(C(=O)O)c1O)B(O)O [Example 10]	C (C represents an MIC of <1 μg/mL)	C (C represents an MIC of <1 μg/mL)	C (C represents an MIC of <1 μg/mL)	C (C represents an MIC of <1 μg/mL)
CCCCC(=O)N[C@@H](Cc1cccc(C(=O)O)c1O)B(O)O [Example 23, (1R)-1-(pentanoylamino)-2-(2-hydroxy-3-carboxyphenyl)ethyl-1-boronic acid]	C (C represents an MIC of <1 μg/mL)	C (C represents an MIC of <1 μg/mL)	C (C represents an MIC of <1 μg/mL)	C (C represents an MIC of <1 μg/mL)
Nc1nc(CC(=O)N[C@@H](Cc2cccc(C(=O)O)c2O)B(O)O)cs1.O=CO [Example 39, (1R)-1-(2-Amino-thiazol-4-yl)-acetylamino-1-(3-carboxy-2-hydroxy)benzyl-methylboronic acid formate salt]	C (C represents an MIC of <1 μg/mL)	C (C represents an MIC of <1 μg/mL)	C (C represents an MIC of <1 μg/mL)	C (C represents an MIC of <1 μg/mL)
NCC(=O)N[C@@H](Cc1cccc(C(=O)O)c1O)B(O)O.O=CO [Example 41, (1R)-1-(2-aminoacetylamino)-2-(2-hydroxy-3-carboxyphenyl)ethyl-1-boronic acid formate salt]	C (C represents an MIC of <1 μg/mL)	A (A represents an MIC>8 μg/mL)	A (A represents an MIC>8 μg/mL)	A (A represents an MIC>8 μg/mL)
